Assay results from PMC8151276, “An Integrated Approach toward NanoBRET Tracers for Analysis of GPCR Ligand Engagement” (Molecules, 2021).

Experiments:
CCR6 = biological target: T1, CCR6 (Homo sapiens, UniProt P51684); test: NanoBRET screen HiBiT-CCR6 in HEK293; assay type: binding
T1 construct: purchased Promega (in-house HiBiT-GPCR construct library, NanoBRET)
T1 sequence (P51684 1-374): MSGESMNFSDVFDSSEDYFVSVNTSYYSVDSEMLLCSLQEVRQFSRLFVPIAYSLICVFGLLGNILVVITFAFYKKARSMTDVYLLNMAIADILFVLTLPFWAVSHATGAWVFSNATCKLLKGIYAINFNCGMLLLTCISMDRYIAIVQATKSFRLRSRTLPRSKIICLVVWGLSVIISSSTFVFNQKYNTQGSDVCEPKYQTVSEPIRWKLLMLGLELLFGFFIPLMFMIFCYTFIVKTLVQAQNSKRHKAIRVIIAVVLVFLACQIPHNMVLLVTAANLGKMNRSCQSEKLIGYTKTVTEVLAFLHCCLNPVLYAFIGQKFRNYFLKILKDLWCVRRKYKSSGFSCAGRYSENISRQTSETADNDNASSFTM
Description: (§1) Each tracer candidate was screened across the entire library of HiBiT-GPCR constructs using NanoBRET as the detection modality. As depicted in Figure 4A, the specificity of interactions was evaluated through decrease in BRET due to competitive displacement of a bound tracer by excess parental compound. Each tracer was analyzed for binding to each HiBiT-GPCR fusion in the absence and in the presence of competing parental compound. Briefly, HEK293 cells were transfected with HiBiT-GPCR constructs diluted into promoterless DNA to reduce expression and maximize translocation to the cell surface. Each tracer candidate was then screened at concentrations of 1 μM and 0.1 μM across cells expressing these fusions. Cells were treated for 1.5 h with tracer either alone or in the presence of 20 μM competing parental compound (i.e., control). BRET was measured upon addition of purified LgBiT and subsequent complementation with HiBiT genetically fused to a GPCR. The specificity of interactions was assessed through a decrease in BRET signal due to competitive displacement of the bound tracer. To further gauge the robustness of these interactions, the fold response over the control (i.e., BRETtracer/BRETcontrol) was calculated. We chose a 1.5-fold response, which translates to ≥7-fold signal over noise as the minimal threshold required to score an interaction as positive. […]. Below we highlight the screening results obtained for our exemplary fluorescent tracers based on Clozapine, Amitriptyline and AZD1283.
(§2) HiBiT-GPCR DNA constructs were diluted in 10 mM Tris pH 8 to a final concentration of 0.01 μg/μL, arrayed in 96-well plates and stored at −20 °C. For transfection, HEK293 cells were suspended in Opti-MEM (without phenol red) supplemented with 2% fetal bovine serum (Seradigm) and 100 units/mL penicillin–streptomycin (Gibco) at a final concentration of 220,000 cells/mL and dispensed into white 96-well plates at 90 μL/well. Subsequent transfections and screens were carried using an Agilent Bravo Automated Liquid Handling Platform. First, the 96-well HiBiT DNA arrays were diluted 25-fold in Opti-MEM (without serum or phenol red) to a final concentration of 0.0004 μg/μL and 20 μL of the diluted DNAs were transferred into new 96-well plates. Next, promoterless carrier DNA (1 μg/μL) was diluted 25-fold (0.04 μg/μL) and then dispensed into the diluted arrays at 20 μL/well. Following brief mixing, Viafect transfection reagent (Promega) diluted 16-fold into Opti-MEM was dispensed into the plates at 40 μL/well. After mixing by pipetting, plates were incubated for 10 min on the pipetting station deck. The DNA-transfection reagent complexes were then added to plates containing cells. To facilitate the screen, 10 μL of DNA-transfection reagent complexes were added in duplicates to the top 4 and bottom 4 rows, resulting in two identical 48-well arrays per plate. Plates with transfected cells were incubated for 18–20 h at 37 °C/5% CO2. A screen of each tracer across the entire library using two different concentrations requires duplicate plates of transfected cells. Depending on the number of tracers being screened, transfections can be scaled up using the same ratios. The next day, for each tracer, four 20× screening solutions in tracer dilution buffer (Promega) were prepared: two duplicates at final concentration of 20 μM and two duplicates at a final concentration of 2 μM. A competing unmodified compound was added to one of each duplicate at a final concentration of 400 μM. The four resulting solutions were diluted 4-fold in Opti-MEM without serum or phenol red to generate 5× solutions (5 µM and 0.5 µM tracer +/− 100 μM competing compound). To screen the library, a BioTek MultiFlo FX liquid dispenser was used to dispense 22.5 µL of tracer solution to the top 4 rows and 22.5 µL tracer + competing compound solution to the 4 bottom rows. Plates were briefly mixed on an orbital shaker and incubated for 1.5 h at room temperature. […]

P2RY11 = biological target: T2, P2RY11 (Homo sapiens, UniProt Q96G91); test: NanoBRET screen HiBiT-P2RY11 in HEK293; assay type: binding
T2 construct: purchased Promega (in-house HiBiT-GPCR construct library, NanoBRET)
T2 sequence (Q96G91 1-374): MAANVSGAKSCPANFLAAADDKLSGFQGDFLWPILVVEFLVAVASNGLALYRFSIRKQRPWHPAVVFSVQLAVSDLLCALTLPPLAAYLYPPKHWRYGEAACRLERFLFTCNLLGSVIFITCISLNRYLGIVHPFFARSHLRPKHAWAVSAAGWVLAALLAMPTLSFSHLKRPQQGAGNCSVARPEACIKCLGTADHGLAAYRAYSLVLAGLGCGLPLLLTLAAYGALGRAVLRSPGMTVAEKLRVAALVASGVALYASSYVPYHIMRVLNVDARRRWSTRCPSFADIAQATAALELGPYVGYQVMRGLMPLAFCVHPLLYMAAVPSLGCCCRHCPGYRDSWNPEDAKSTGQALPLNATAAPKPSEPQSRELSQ
Description: as §1, §2

[1] = tracer at 0.1μM, listed as amitriptyline-b-2-NB590
[2] = tracer at 1μM, listed as amitriptyline-b-2-NB590

CCOC(=O)c1cc(C#N)c(N2CCC(C(=O)NS(=O)(=O)Cc3ccccc3/C=C/C(=O)NCCNC(=O)CCc3ccc4n3[B-](F)(F)[N+]3=C(c5ccc[nH]5)C=CC3=C4)CC2)nc1C [AZD1283-1-NB590]
NanoBRET Fold Response (CCR6; CCR6, 0.1μM): 1.06 | NanoBRET Fold Response (CCR6; CCR6, 1μM): 1.08 | NanoBRET Fold Response (P2RY11; P2RY11, 0.1μM): 1.09 | NanoBRET Fold Response (P2RY11; P2RY11, 1μM): 1.04

N#CN=C(NCCCOc1cccc(CN2CCCCC2)c1)NCCNC(=O)CCOCCOCCOCCOCCNC(=O)CCc1ccc2n1[B-](F)(F)[N+]1=C(c3ccc[nH]3)C=CC1=C2 [Aminopotentidine-2-NB590]
NanoBRET Fold Response (CCR6; CCR6, tracer 0.1μM): 0.96 | NanoBRET Fold Response (CCR6; CCR6, tracer 1μM): 1.00 | NanoBRET Fold Response (P2RY11; P2RY11, tracer 0.1μM): 1.14 | NanoBRET Fold Response (P2RY11; P2RY11, tracer 1μM): 1.03

CN(C)CCC=C1c2ccccc2CCc2ccc(C(=O)NCCNC(=O)CCOCCOCCOCCOCCNC(=O)CCc3ccc4n3[B-](F)(F)[N+]3=C(c5ccc[nH]5)C=CC3=C4)cc21 [Amitriptyline-a-2-NB590]
NanoBRET Fold Response (CCR6; tracer at 0.1μM): 0.96 | NanoBRET Fold Response (CCR6; tracer at 1μM): 0.94 | NanoBRET Fold Response (P2RY11; tracer at 0.1μM): 1.13 | NanoBRET Fold Response (P2RY11; tracer at 1μM): 1.07

CN(C)CCC=C1c2ccccc2CCc2ccc(C(=O)NCCNC(=O)CCOCCOCCOCCOCCNC(=O)CCc3ccc4n3[B-](F)(F)[N+]3=C(c5ccc[nH]5)C=CC3=C4)cc21 [Amitriptyline-b-2-NB590]
NanoBRET Fold Response (CCR6; [1]): 1.01 | NanoBRET Fold Response (CCR6; [2]): 1.01 | NanoBRET Fold Response (P2RY11; [1]): 0.88 | NanoBRET Fold Response (P2RY11; [2]): 0.96

CN(CCC=C1c2ccccc2CCc2ccccc21)C(=O)CCOCCOCCOCCOCCNC(=O)CCc1ccc2n1[B-](F)(F)[N+]1=C(c3ccc[nH]3)C=CC1=C2 [Amitriptyline-e-2-NB590]
NanoBRET Fold Response (CCR6; tracer at 1μM): 1.00 | NanoBRET Fold Response (P2RY11; tracer at 1μM): 1.13

COc1ccc2c(n1)c(CCNC(C)=O)cn2CCNC(=O)CCc1ccc2n1[B-](F)(F)[N+]1=C(c3ccc[nH]3)C=CC1=C2 [Azamelatonin-1-NB590]
NanoBRET Fold Response (CCR6; 0.1μM tracer): 0.86 | NanoBRET Fold Response (CCR6; 1μM tracer): 0.98 | NanoBRET Fold Response (P2RY11; 0.1μM tracer): 0.89 | NanoBRET Fold Response (P2RY11; 1μM tracer): 0.89

COc1ccc2[nH]c(-c3ccc(CNC(=O)CCOCCOCCOCCOCCNC(=O)CCc4ccc5n4[B-](F)(F)[N+]4=C(c6ccc[nH]6)C=CC4=C5)cc3)c(CCNC(C)=O)c2n1 [AzomelatoninICO9-2-NB590]
NanoBRET Fold Response (CCR6; 0.1μM tracer): 0.85 | NanoBRET Fold Response (CCR6; 1μM tracer): 1.20 | NanoBRET Fold Response (P2RY11; 0.1μM tracer): 1.19 | NanoBRET Fold Response (P2RY11; 1μM tracer): 0.97

O=C(CCOCCOCCOCCOCCNC(=O)CCc1ccc2n1[B-](F)(F)[N+]1=C(c3ccc[nH]3)C=CC1=C2)NCCCN1CCN(C2=Nc3cc(Cl)ccc3Nc3ccccc32)CC1 [Clozapine-a-2-NB590]
NanoBRET Fold Response (CCR6; CCR6, 0.1μM tracer): 1.05 | NanoBRET Fold Response (CCR6; CCR6, 1μM tracer): 0.97 | NanoBRET Fold Response (P2RY11; P2RY11, 0.1μM tracer): 1.04 | NanoBRET Fold Response (P2RY11; P2RY11, 1μM tracer): 0.93

CN1CCN(C2=Nc3cc(Cl)ccc3Nc3ccc(CNC(=O)CCOCCOCCOCCOCCNC(=O)CCc4ccc5n4[B-](F)(F)[N+]4=C(c6ccc[nH]6)C=CC4=C5)cc32)CC1 [Clozapine-b-2-NB590]
NanoBRET Fold Response (CCR6; CCR6, 0.1μM tracer): 1.03 | NanoBRET Fold Response (CCR6; CCR6, 1μM tracer): 0.97 | NanoBRET Fold Response (P2RY11; P2RY11, 0.1μM tracer): 1.04 | NanoBRET Fold Response (P2RY11; P2RY11, 1μM tracer): 0.98
